According to PMC9412875, “^64Cu-DOTHA2-PSMA, a Novel PSMA PET Radiotracer for Prostate Cancer with a Long Imaging Time Window” (Pharmaceuticals, 2022):
Like-named read-outs stand apart in the source and are kept apart here.

Assays:
[1] = molecular target: PSMA; set-up: method as in PMID 25883127; settings: cited from earlier work
[2] = Plasma stability (ex vivo) and protein binding in mouse serum/plasma; format: in vitro ADME; settings: incubation of free 64Cu(OAc)2 in mouse plasma
Method: Plasma stability studies were carried out by incubating ^64Cu-DOTHA2-PSMA (50 MBq in 250 μL PBS buffer) in 250 μL of mouse serum at 37 °C for up to 24 h. The plasma was then mixed twice with ethanol (1:1) to precipitate all the proteins. The samples were subjected to vortex mixing for 1 min and then centrifugation for 10 min at 7000 rpm. Plasma proteins were separated from the soluble component by ultracentrifugation and the radioactivity was assessed. The supernatant fraction was assayed by radio-TLC on C18 plates and by UPLC; free ^64Cu(OAc)2 and ^64Cu-DOTHA2-PSMA were used as standards. The radio-TLCs were eluted with 0.1 M sodium citrate buffer at pH 5.5 using an Instant Imager system (BioScan, DC, U.S.A.) for radiodetection. The precipitated proteins were again subjected to 10% TFA, vortexed for 2–3 min, and then centrifuged for 10 min at 7000 rpm. The separation and analysis for the supernatant and the proteins were performed in the same manner.
The protein binding ability was evaluated by incubating ^64Cu-DOTHA2-PSMA (100 MBq) in phosphate buffer (250 μL, pH 7) at 37 °C and fresh mouse serum (250 μL) and for 1 h, 4 h, and 24 h. Plasma proteins were precipitated by the addition of ethanol (1:1, v/v) to the plasma samples, followed by centrifugation at 7000 rpm for 5 min at room temperature and separation of the supernatant. This process was repeated three times with the same volume of ethanol, and the supernatants were pooled. The radioactivity content of the supernatant and the precipitated protein were measured in a dose calibrator to obtain the protein binding percentage.

[3] = set-up: method as in PMID 29088775, doi:10.1515/ract-2016-2632; settings: cited from earlier work
[4] = cited from earlier work
[5] = system: LNCaP cells; assay: Cellular efflux assay; format: cell-based, human; settings: 1h incubation
Method: Here, 12-well polylysine-coated Cellbind plates were seeded with 150 × 10^3 LNCaP cells with 1.75 mL of cell media. At 70–100% confluence (3 days of growth), the cell medium was changed and 37 kBq of ^64Cu-DOTHA2-PSMA in 1 mL of cell medium was added to each well of group 1 and 160 kBq to each of group 2.
For efflux assays, after adding ^64Cu-DOTHA2-PSMA, cells were incubated for 60 min for the time points 15 min to 4 h (group 1) and incubated for 4 h for the time points 4 h to 48 h (group 2). After incubation, the medium was removed, cells were washed with 1 mL of cold PBS, 1 mL of cell media was added and, similarly to uptake and internalization, cells were again incubated in nonradioactive media for 0, 15, 30, 45, 60 min, 2 h, 4 h (group 1) and 4 h, 8 h, 24 h, 32 h or 48 h (group 2) (3 wells per time point). After respective incubation times per well, the medium was removed, and cells were washed with 1 mL of cold PBS, then removed from the well with 1 mL of trypsin to measure the residual radioactivity by gamma counter. The results of residual activity were expressed as percentage of the 1 h (Group 1) or 4 h (Group 2) uptake activity (0 min of efflux time-point) as a function of time for 10^6 cells.
All the assays were performed at least 3 times, each with different ^64Cu-DOTHA2-PSMA production and cell passage. Cells were counted in 3 wells for each protocol (uptake, internalization, and efflux) on day 1 and day 3 of each experiment and an average for cells numbers at day 2.

[6] = Balb/c mice biodistribution; format: in vivo; settings: 2 h p.i.
Method: ^64Cu-DOTHA2-PSMA biodistribution was assessed in balb/c mice (n = 30) by harvesting blood and organs at 1 h, 2 h, 4 h, 24 h, and 48 h p.i. to measure tissue radioactivity and weight. Results were reported as the %IA/g of tissue and compared with the radiotracer used for clinical imaging in our facility, ^68Ga-PSMA-617.
Balb/c mice (n = 30) were injected with a bolus of ^64Cu-DOTHA2-PSMA by the tail vein (in 0.3 mL of saline: 3 MBq for 1 h, 2 h, and 4 h p.i., 7.5 MBq for 24 h p.i. and 21 MBq for 48 h p.i.). Injected activity had to be increased for later time points to ensure reliable detection and reliability in organs with a low uptake, e.g., the brain. At all timepoints, blood was collected using a heparin-coated syringe by femoral vein puncture and mice were then euthanized and dissected. Harvested tissues were rinsed, blotted dry, and then weighted and counted in gamma counter. The results are reported as the %IA per gram of tissue. The biodistribution results were compared with the ^68Ga-PSMA-617 results obtained by our team at 1 h and 2 h p.i.

[7] = molecular target: T1, PSMA on the LNCaP human prostate cell line (Homo sapiens, UniProt Q04609); assay: Cellular competition assay; format: binding
T1 construct: Human prostate adenocarcinoma LNCaP PSMA-expressing cells were purchased from American Type Culture Collection; host or cells: LNCaP human prostate adenocarcinoma cells
Method: Here, 12-well polylysine-coated Cellbind plates were seeded with 150 × 10^3 LNCaP cells. […] […] Cells were then incubated for 1 h, after which the medium was removed, cells were washed once with 1 mL of cold PBS, and then 1 mL of trypsin was added to collect cells for radioactivity measurement by gamma-counter. The assays were performed in triplicate, each time with independent ^64Cu-DOTHA2-PSMA production and cell seedings. IC50 was calculated using GraphPad Prism 9 one site fit logIC50.

T1 sequence (Q04609 whole entry): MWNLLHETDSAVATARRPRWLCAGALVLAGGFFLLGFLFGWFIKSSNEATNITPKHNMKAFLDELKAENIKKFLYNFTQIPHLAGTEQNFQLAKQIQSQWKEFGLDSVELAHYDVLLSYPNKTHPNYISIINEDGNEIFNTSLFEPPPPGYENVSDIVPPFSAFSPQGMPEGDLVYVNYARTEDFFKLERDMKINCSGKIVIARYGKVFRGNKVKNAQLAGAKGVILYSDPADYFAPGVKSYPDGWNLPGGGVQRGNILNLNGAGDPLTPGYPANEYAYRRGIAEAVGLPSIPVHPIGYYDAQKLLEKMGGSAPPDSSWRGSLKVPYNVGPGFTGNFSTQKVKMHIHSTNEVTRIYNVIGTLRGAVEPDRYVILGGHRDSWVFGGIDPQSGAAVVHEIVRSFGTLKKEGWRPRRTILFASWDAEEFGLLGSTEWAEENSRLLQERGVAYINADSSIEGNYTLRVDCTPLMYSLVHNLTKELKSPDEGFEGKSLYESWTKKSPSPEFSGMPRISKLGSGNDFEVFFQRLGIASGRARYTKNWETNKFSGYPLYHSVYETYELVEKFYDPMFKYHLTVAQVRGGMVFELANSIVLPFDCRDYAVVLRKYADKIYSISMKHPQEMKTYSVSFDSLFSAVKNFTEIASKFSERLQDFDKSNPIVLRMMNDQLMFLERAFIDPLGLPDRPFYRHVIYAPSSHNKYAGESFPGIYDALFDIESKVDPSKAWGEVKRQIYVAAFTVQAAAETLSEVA

O=C(O)CC[C@H](NC(=O)N[C@@H](CCCCNC(=O)[C@H](Cc1ccc2ccccc2c1)NC(=O)[C@H]1CC[C@H](CNC(=O)CN2CCN(CC(=O)O)CCN(CC(=O)O)CCN(CC(=O)O)CC2)CC1)C(=O)O)C(=O)O [PSMA-617]
Ki [1]: 2.34 ± 2.94 nM

CC(=O)[O-].CC(=O)[O-].[64Cu+2] [^64Cu(OAc)2]
proportion of the signal bound to plasma proteins [2]: greater than 90%

O=C([O-])CN1CCN(CC(=O)[O-])CCN(CC(=O)NCC2CCC(C(=O)NC(Cc3ccc4ccccc4c3)C(=O)NCCCCC(NC(=O)NC(CCC(=O)O)C(=O)O)C(=O)O)CC2)CCN(CC(=O)O)CC1.[64Cu+2] (centres unmarked) [^64Cu-PSMA-617]
log D [3]: −1.93 ± 0.13
signal corresponding to the intact product in blood ([4]; 2 h p.i.): 20%
signal corresponding to the intact product in liver ([4]; 2 h p.i.): 28%
signal corresponding to the intact product in urine ([4]; 2 h p.i.): 5.2%
signal corresponding to the intact product in serum ([4]; after 5 min): 71%

O=C(O)CCC(NC(=O)NC(CCCCNC(=O)C(Cc1ccc2ccccc2c1)NC(=O)C1CCC(CNC(=O)CN2CCN(CC(=O)O)CCN(CC(=O)O)CCN(CC(=O)O)CC2)CC1)C(=O)O)C(=O)O.[68Ga] (centres unmarked) [^68Ga-PSMA-617, reference compound]
log D [3]: −1.98
Retained activity normalized to time 0 ([5]; efflux time 0.25 h): 101.57%
Retained activity normalized to time 0 ([5]; efflux time 0.50 h): 106.07%
Retained activity normalized to time 0 ([5]; efflux time 0.75 h): 97.22%
Retained activity normalized to time 0 ([5]; efflux time 1 h): 84.75%
Retained activity normalized to time 0 ([5]; efflux time 2 h): 81.62%
liver uptake [6]: 0.67 ± 0.16 % IA/g

CN([O-])C(=O)CN1CCN(CC(=O)NCC2CCC(C(=O)NC(Cc3ccc4ccccc4c3)C(=O)NCCCCC(NC(=O)NC(CCC(=O)O)C(=O)O)C(=O)O)CC2)CCN(CC(=O)N(C)[O-])CCN(CC(=O)N(C)O)CC1.[Cu+2] (centres unmarked) [^natCu-DOTHA2-PSMA]
IC50 ([7]; in competition with 64Cu-DOTHA2-PSMA, 1 h, reaction medium with 20 g/L BSA, read-out: IC50 on LNCaP): 11.3 ± 14.3 nM
IC50 ([7]; with 10% BSA in RPMI, read-out: IC50): 21.4 nM
IC50 ([7]; with RPMI only, read-out: IC50): 9.08 nM
